# In patent US9878054B2, “Polypeptide and lipophilic moiety conjugate compositions, formulations, and uses related thereto” (Tufts Medical Center, Inc., priority 2012, dated 2018):
# Where a SMILES comes first, the peptide text is derived from it. The star is where a group is joined. Palmitoyl = CCCCCCCCCCCCCCCC(=O)*
# What was measured:
# [1] = test system: PAR1; assay: Guinea pig ex vivo platelet aggregation to SFLLRN after iv infusion; format: in vivo; conditions: 3 and 6 mg/kg, 10 min iv infusion, 15 min time point, 2.5 μM SFLLRN
# Description: PZ-128 or 5% dextrose USP vehicle was infused for 10 min into the jugular vein of male and female guinea pigs (0.55-0.65 kg). A-C, At the 15 min time point, whole blood was collected by cardiac puncture in 100 μg/ml PPACK/4% Na-citrate (final) anti-coagulant and platelet rich plasma (PRP) prepared and aggregation measurements were performed. […] B-C, PRP obtained at the 15 min time point after infusion with vehicle, 3 mg/kg PZ-128 or 6 mg/kg PZ128 was challenged with 2.5 μM SFLLRN, 20 μM ADP or 20 μM thromboxane mimetic, U46119. Individual data points (n=3) are overlayed on bar graphs depicting mean±SD. […] Data in B-D were analyzed by the non-parametric Kruskal-Wallis test with the Dunn's multiple pairwise comparison post-test.
# PZ-128 micelles were delivered by internal jugular vein infusions over 10 min.
# Guinea pigs weighing 600-650 g were used for platelet aggregation experiments. PZ-128 micelles (3 or 6 mg/kg) were administered by a 10 min intravenous infusion, and blood was collected by cardiac puncture into sodium citrate (0.4% vol/vol final) 5 minutes after cessation of the infusion. PRP was prepared and PPACK added to a final concentration of 100 μg/ml. PRP was calcified with 2.5 mM CaCl2 and aggregation was performed as described above.
# [2] = test system: PAR1; assay: Baboon ex vivo platelet aggregation, SFLLRN (PAR1); format: in vivo
# Description: (§1) A-C, Male baboons (10-12 kg) were administered 1, 3 or 6 mg/kg PZ-128, or 5% dextrose USP vehicle by iv infusion and blood collected into 100 μg/ml PPACK anticoagulant at 0, 1, 2, 6, or 24 h time points. Light transmission platelet aggregometry was performed with platelet rich plasma with the indicated agonists (SFLLRN for PAR1, AYPGKF for PAR4 and ADP for P2Y12 and P2Y1). Data are reported as mean±SD (n=3-7) relative to time 0 controls (0%) and were analyzed by repeated measures one-way ANOVA with Bonferroni post-test correction; *P<0.05, **P<0.01 relative to time 0. Global P values were >0.05 for 1 mg/kg, 0.004 for 3 mg/kg, <0.0001 for 6 mg/kg. D, Pharmacokinetics of 3 and 6 mg/kg 45-min iv infusions of PZ-128 in male baboons. Plasma PZ-128 levels were measured by LC/MS/MS at 9 sequential time points: baseline, 15 min, 30 min, 1 h, 2 h, 4 h, 8 h, 24 h and 48 h after the start of infusion. Open symbols indicated plasma concentrations that were under the measurement threshold (5 ng/ml).
# The anti-platelet effects of PZ-128 micelles were next examined in baboons at various time points after receiving different doses of intravenous infusions. […] At the lowest dose tested, 1 mg/kg PZ-128 micelles ([…]), PAR1-dependent aggregation (5 μM SFLLRN) was inhibited by only 5-10% at the 1-2 h time points (FIG. 3A). […] As a further assessment of in vivo specificity, PZ-128 gave no inhibition at any dose of either the ADP or AYPGKF (PAR4) responses at any time point.
# Non-terminal thrombosis and platelet aggregation studies were performed on 12 healthy male baboons (Papio anubis) weighing 9-12 kg at the Oregon National Primate Research Center (ONPRC). […] Whole blood (10 ml) was collected into PPACK at a final concentration of 100 μg/ml just prior to infusion (baseline) and 15 min to 24 h after the PZ-128 micelle infusion was terminated. Platelet counts and hematocrit were measured immediately. PRP was prepared from whole blood and platelet aggregation performed as described above. Bleeding time (BT) measurements were performed on the shaved volar surface of the forearm using the standard template method.
# [3] = test system: P2Y12 and P2Y1; assay: Baboon ex vivo platelet aggregation, ADP; format: in vivo; conditions: any dose, any time point
# Description: as §1
# The anti-platelet effects of PZ-128 micelles were next examined in baboons at various time points after receiving different doses of intravenous infusions. […]
# Non-terminal thrombosis and platelet aggregation studies were performed on 12 healthy male baboons (Papio anubis) weighing 9-12 kg at the Oregon National Primate Research Center (ONPRC). […] Platelet counts and hematocrit were measured immediately. […]
# [4] = Pharmacokinetics of PZ-128 in baboon plasma (LC/MS/MS); format: in vivo
# Description: as §1
# The maximal plasma concentration of PZ-128 was 14 μmol/L at the 6 mg/kg dose and 5.6 μmol/L for the 3 mg/kg dose. […] The pharmacokinetic and anti-platelet pharmacodynamic properties of PZ-128 micelles indicate that this lipopeptide reaches maximal activity during and immediately after intravenous infusion and is completely eliminated by the next day.
# Various doses of PZ-128 micelles were infused intravenously for 45 min to baboons. At sequential time points, whole blood was drawn into 3.2% citrate buffer and immediately centrifuged at 3000 rpm for 10 min. Platelet-poor plasma (PPP) samples were harvested and stored at −80° C. PZ-128 drug levels in PPP samples were determined was using an API 4000 LC/MS/MS system (Agilux Laboratories, Worcester, Mass.).
# [5] = PT, aPTT, bleeding and plasma levels in cynomolgus monkeys after daily iv infusions; format: in vivo; conditions: cynomolgus monkey
# Description: PZ-128 micelles were also administered daily for 4 days to adult male and female cynomolgus monkeys with 1 h iv infusions of 3 mg/kg, 10 mg/kg and 30 mg/kg PZ-128. Coagulation parameters prothrombin time (PT) and activated partial thromboplastin time (aPTT) were unaffected in all monkeys at 3-30 mg/kg PZ-128 at either day 1 and day 5 as compared to baseline or vehicle-treated animals (Table 2).
# PZ-128 micelles (0, 3, 10 or 30 mg/kg) were administered intravenously to 2.5-4.5 kg male and female cynomolgus monkeys by infusion over 1 h at MPI Laboratories (Mattawan, Mich.). Peripheral venous blood was collected from cynomolgus monkeys into K3EDTA anticoagulant at baseline (Day −8) and at two time points (Day 1 and Day 5) after daily 1-h intravenous PZ-128 micelle infusions on days 1-4. PT and aPTT were analyzed immediately on a MLA-800 coagulation analyzer.
# [6] = Solubility of lyophilized PZ-128 after reconstitution (visual inspection); format: physicochemical
# Description: Column recovered fractions containing PZ-128 ammonium salts were lyophilized by using the following procedure: 5 mL of elute from reverse phase column cartridge was place into a 15-mL vial; the sample frozen in dry ice-isopropanol bath for 5 minutes with swirling until completely frozen, the temperature should be about −35 to −45° C. and the vacuum pressure should be about 60-100×10^−3 mBar; frozen samples/vials are places in a 0.5-1 L lyophilization glass container; open the chamber to the vacuum pump where the vacuum pressure should rise and then come back to 100-200×10^−3 M Bar until drying is complete; and the sample is stored at −20° C. The product of the first PZ-128 lyophilization was dissolved in pure water and lyophilized a second time.
# The different excipients listed in Table 1 were added to 10×500 μL aliquots of the fully soluble 1 mg/mL PZ-128 solution (product of the first lyophilization), mixed, froze, and lyophilization overnight. After lyophilization, the appearance of the dried lyophilizate was examined and the solubility determined after reconstitution with 100 μL water to 5 mg/mL PZ-128 salt product.
# The appearances of each of the samples after a second lyophilization from water with the different excipients are listed in Table 1. […]
# [7] = 3-30 mg/kg, 1 h iv infusion daily for 4 days, day 1 and day 5
structure (smiles),measurement,setting,value
"CCCCCCCCCCCCCCCC(=O)N[C@@H](CCCCN)C(=O)N[C@@H](CCCCN)C(=O)N[C@@H](CO)C(=O)N[C@@H](CCCNC(=N)N)C(=O)N[C@@H](C)C(=O)N[C@@H](CC(C)C)C(=O)N[C@@H](Cc1ccccc1)C(N)=O [PZ-128, palmitate-KKSRALF-NH2] (Palmitoyl-KKSRALF-NH2)",Inhibition of ex vivo platelet aggregation to SFLLRN,[1],"significant, dose-dependent inhibition"
same,Inhibition of PAR1-dependent ex vivo aggregation,"[2]; 1 mg/kg, 30 min infusion, 5 μM SFLLRN, 1-2 h",5-10%
same,Reversibility: inhibition with higher concentration of SFLLRN agonist,"[2]; 3 mg/kg and 6 mg/kg, 10 μM SFLLRN",loss of inhibition
same,Inhibition of PAR1-dependent ex vivo aggregation,"[2]; 3 mg/kg, 30 min infusion, 1 h and 2 h",85%
same,Inhibition of PAR1-dependent ex vivo aggregation,"[2]; 3 mg/kg, 24 h",not appreciably inhibited
same,Inhibition of PAR1-dependent ex vivo aggregation,"[2]; 6 mg/kg, 45 min infusion, 1-2 h",100%
same,Inhibition of PAR1-dependent ex vivo aggregation,"[2]; 6 mg/kg, 45 min infusion, 6 h",90%
same,"PAR1-dependent ex vivo aggregation, recovery","[2]; 6 mg/kg, 24 h",completely recovered
same,Inhibition of ADP response ex vivo,[3],no inhibition
same,Plasma half life,[4]; 3 and 6 mg/kg iv infusion,50 to 80 min
same,Plasma level at late time points,"[4]; 24-48 h, measurement threshold 5 ng/ml",not detectable
same,Clearance from plasma,[4]; by 8 h,nearly completely cleared
same,half-life,"[4]; male, plasma, iv, 3 and 6 mg/kg iv infusion",50 to 81 min
same,Cmax,"[5]; both sexes, plasma, up to 30 mg/kg iv infusion",> 200 µM
same,"Spontaneous, venous access, or retinal bleeding",[5]; 3-30 mg/kg daily iv,"No spontaneous, venous access, or retinal bleeding was observed"
same,Activated partial thromboplastin time (aPTT),[5]; [7],unaffected
same,Prothrombin time (PT),[5]; [7],unaffected
same,Solubility of product of second lyophilization from pure water,"[6]; 5 mg/mL, tested formulations including 100% water",did not solubilize
same,Solubility of micelles after filtration and second lyophilization with ammonium acetate,[6]; 100% water and 5% dextrose/water at 5 mg/mL,readily soluble
